Data from US12269816B2, “Benzothiophene compound, preparation method therefor and use thereof” (SICHUAN KELUN-BIOTECH BIOPHARMACEUTICAL CO., LTD., priority 2019, dated 2025).

Columns and labels:
[1] = test system: STING-mediated interferon (IFN) signal reporter gene in THP1-Blue™ ISG cells; experiment: STING-mediated interferon (IFN) signal SEAP reporter gene assay in THP1-Blue ISG cells; format: cell-based, human; settings: for EC50: 16 h incubation, SEAP reporter read at OD620nm; for Emax (OD620nm): highest OD620nm value generated by stimulation of the compound, 16 h; for agonistic effect on the STING-mediated Interferon (IFN) signal pathway: result in words
From the text: In this experiment, the activity of the SEAP (secreted embryonic alkaline phosphatase) reporter gene regulated by the IFN regulatory factor (interferon regulatory factor) was detected in the THP1-Blue™ ISG cells (InvivoGen) to evaluate the agonistic effect of the compounds to be tested on the STING-mediated IFN signal pathway at the cellular level.
The THP1-Blue™ ISG cells (InvivoGen) in the logarithmic phase were centrifuged, and resuspended in a cell culture solution to a density of 2×10^6 cells/ml. The cell suspension was inoculated in a 96-well cell culture plate (Corning) at 50 μL/well. The mother liquor of the compound to be tested was gradiently diluted with a cell culture solution to obtain a 2× working concentration diluted solution (control compounds 1 and 2 were diluted at a 3-fold gradient: 200, 66.67, 22.22, 7.41, 2.47, 0.82, 0.27 and 0 μM; compounds 1, 2, 4, 6, 8, and 23 were diluted at a 8-fold gradient: 60, 7.5, 0.94, 0.12, 0.015, 0.0018, 0.00023 and 0 μM; and compounds 3 and 5 were diluted at a 10-fold gradient: 10, 1, 0.1, 0.01, 0.001, 0.0001, 0.00001 and 0 μM). The 2× working concentration diluted solution of the compound was added into a 96-well plate (50 μl of the culture solution containing 2% DMSO was added into the negative control well) at 50 μL/well. The culture plate was then placed in a cell incubator, and incubated for 16 h. After the cell incubation, 10 μL of the cell culture supernatant was transferred to a 96-well plate, and a QUANTI-Blue (InvivoGen) solution was added at 90 μL/well. The cells were incubated at 37° C. for 3 h. The absorbance at 620 nm (OD620nm) was read with a microplate reader.
In the table, EC50 refers to the concentration of a compound when ODM620nm value generated by stimulation of the compound reaches half of Emax; and Emax refers to the highest OD620nm value generated by stimulation of the compound.

[2] = test system: STING pathway cytokine hIFN-β in human THP-1 cells; experiment: ELISA of STING pathway cytokine hIFN-β expression in human THP-1 cells; format: cell-based; settings: 8 hours, ELISA; for EC50: hIFN-β expression; for Emax: highest expression of hIFN-β
From the text: In this experiment, the expression of STING signal pathway cytokine hIFN-β was detected in THP1 cells (Nanjing Cobioer) by the ELISA method, so as to evaluate the agonistic effect of the compounds to be tested on the expression of STING pathway cytokine hIFN-β at the cellular level.
THP1 cells (Nanjing Cobioer) in the logarithmic phase were centrifuged, and resuspended in a cell culture solution to a density of 8×10^6 cells/ml. The cell suspension was inoculated into a 24-well cell culture plate (Corning) at 250 μL/well.
The mother liquor of the compound to be tested was diluted with a cell culture solution to obtain a 2× working concentration diluted solution (control compounds 1 and 2 were diluted at a 2-fold gradient: 200, 100, 50, 25, 12.5, 6.25, 3.125, 1.5625 and 0 μM; and compounds 4, 6, and 8 were diluted at a 3-fold gradient: 200, 66.67, 22.22, 7.41, 2.47, 0.82, 0.27, 0.091 and 0 μM). The 2× working concentration diluted solution of the compound was added into 24-well plate (250 μl of the culture solution containing 2% DMSO was added into the negative control well) at 250 μL/well. The culture plate was placed in a cell culture incubator, and incubated for 8 hours. After the cell incubation, the supernatant was collected by centrifugation at 300 g×5 min, and the hIFN-β content (pg/ml) in the cell culture supernatant was detected according to the operating instructions of the VeriKine Human […] ELISA kit from PBL (obtained by conversion of the […] absorbance-hIFN-β standard concentration standard curve and the OD450 nm absorbance value read by the microplate reader). […] was calculated through log(agonist) vs. response—Variable slope fitting by the Graphpad Prism software, and the experimental results are shown in Table 2.
In the table, EC50 refers to the concentration of a compound when the expression of hIFN-β generated by stimulation of the compound reaches half of Emax and Emax refers to the highest expression of hIFN-β generated by stimulation of the compound.

[3] = test system: STING pathway cytokine mIFN-β in mouse Raw264.7 cells; experiment: ELISA of STING pathway cytokine mIFN-β expression in mouse Raw264.7 cells; format: cell-based; settings: 6 h, ELISA; for Emax: highest expression of mIFN-β; for EC50: mIFN-β expression
From the text: In this experiment, the expression of STING signal pathway cytokine mIFN-β was detected in Raw264.7 cells (Nanjing Cobioer) by the ELISA method, so as to evaluate the agonistic effect of the compound to be tested on the expression of STING pathway cytokine mIFN-β at the cellular level.
Raw264.7 cells (Nanjing Cobioer) in the logarithmic phase were centrifuged, and resuspended in a cell culture solution to a density of 1.6×10^6 cells/ml. The cell suspension was inoculated into a 24-well cell culture plate (Corning) at 250 μL/well. The mother liquor of the compound to be tested was gradiently diluted with a cell culture solution to obtain a 2× working concentration diluted solution (control compound 1 was diluted at a 3-fold gradient: 200, 66.67, 22.22, 7.41, 2.47, 0.82, 0.27 and 0 μM; control compound 2 was diluted at a 2-fold gradient: 200, 100, 50, 25, 12.5, 6.25, 3.125 and 0 μM; and compounds 4, 6 and 8 were diluted at a 4-fold gradient: 200, 50, 12.5, 3.13, 0.78, 0.20, 0.049 and 0 μM). The 2× working concentration diluted solution of the compound was added into a 24-well plate (250 μl of the culture solution containing 2% DMSO was added into the negative control well) at 250 μL/well. The culture plate was then placed in a cell incubator, and incubated for 6 h. After the cell incubation, the supernatant was collected by centrifugation at 300 g×5 min, and the mIFN-β content (pg/ml) in the cell culture supernatant was detected according to the operating instructions of the VeriKinem Mouse IFN Beta ELISA Kit from PBL (obtained by conversion of the OD450 nm absorbance-mIFN-β standard concentration standard curve and the OD450 nm absorbance value read by the microplate reader). EC50 was calculated through log(agonist) vs. response—Variable slope fitting by the Graphpad Prism software, and the experimental results are shown in Table 3.
In the table, EC50 refers to the concentration of a compound when the expression of mIFN-β generated by stimulation of the compound reaches half of Emax; and Emax refers to the highest expression of mIFN-β generated by stimulation of the compound.

hSTING protein = biological target: T1, hSTING protein (Homo sapiens, UniProt Q86WV6); experiment: Human STING binding kit (HTRF) competitive binding assay
T1 construct: purchased Cisbio
T1 sequence (Q86WV6 whole entry H232R): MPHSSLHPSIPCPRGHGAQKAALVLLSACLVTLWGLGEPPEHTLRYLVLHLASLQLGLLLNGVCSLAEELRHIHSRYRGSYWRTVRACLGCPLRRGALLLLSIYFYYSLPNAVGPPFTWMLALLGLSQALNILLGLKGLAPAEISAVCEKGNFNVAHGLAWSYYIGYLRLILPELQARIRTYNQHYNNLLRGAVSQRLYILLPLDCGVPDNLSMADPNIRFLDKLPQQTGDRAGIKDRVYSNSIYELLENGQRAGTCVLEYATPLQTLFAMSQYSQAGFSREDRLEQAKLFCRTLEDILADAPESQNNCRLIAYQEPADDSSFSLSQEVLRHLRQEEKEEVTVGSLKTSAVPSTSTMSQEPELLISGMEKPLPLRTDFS
From the text: In this experiment, the capability of the compound and the specific ligand (d2-STING-ligand) in a Human STING binding kit from Cisbio for competitively binding to the 6×His-hSTING protein was detected using the Human STING binding kit (HTRF method), so as to evaluate the binding affinity between the compound to be tested and the hSTING protein.
The compound was gradiently diluted with a dilution buffer in the Human STING binding kit (the diluent buffer reagent) to obtain a 4× working concentration diluted solution. […] The 6×His-hSTING protein (50× in the mother liquor) was diluted to 1× with the detection buffer in the Human STING binding kit (the detection buffer reagent). 5 μl of the diluted solution was added into the corresponding wells of a 384-well plate, and the well with no protein and no compound was set as a negative control well (min), while the well with the protein and no compound was set as a positive control well (max). The d2-STING-ligand and Tb^3+-anti-6×His-antibody (both 50× in the mother liquor) were diluted to 1× with the detection buffer in the Human STING binding kit (the detection buffer reagent), and mixed uniformly at a ratio of 1:1. 10 μl of the mixed solution was added to the corresponding wells of a 384-well plate. The plate was sealed and incubated at room temperature (25° C.) for 3 h. A BMG microplate reader was used to read HTRF, and the ratio was calculated according to the following formula: Ratio=signal665nm/signal620nm×10000. […] IC50 was calculated through log(inhibitor) vs. response—Variable slope fitting by the Graphpad Prism software.

[4] = test system: STING and its downstream proteins TBK1 and IRF3 in THP-1 cells; experiment: Western blotting of phosphorylation of STING signal pathway proteins in human THP-1 cells; format: cell-based; settings: 3 hours, protein blotting, FIGS. 1-5, result in words
From the text: In this experiment, the changes in the phosphorylation levels of STING and its downstream proteins TBK1 (TANK-binding kinase 1) and IRF3 (interferon regulatory factor 3) were detected by protein blotting to evaluate the agonistic effect of the test compounds on the STING signal pathway at the cellular level.
The THP-1 cells in the logarithmic phase were centrifuged, and resuspended in a cell culture solution to a density of […]. The cell suspension was inoculated into a 12-well cell culture plate (Corning) at 0.5 mL/well. The compound to be tested was diluted with a cell culture solution to 2× working solution concentration (control compounds 1 and 2: 60 μM; compounds 1 and 3: 0.6 μM, 6 μM, and 60 μM; compounds 2, 4, 6 and 8: 6 μM, 20 μM, and 60 μM). 0.5 mL of the diluted solution of the compound was added into a 12-well plate (500 μl of the culture solution containing 2% DMSO was added into the negative control well), and the plate was incubated in a cell incubator for 3 hours. After the incubation, the cells were collected by centrifugation, lysed with 60 μL cell lysis buffer (CST) for 30 minutes, and centrifuged at 12,000 rpm for 15 minutes. The supernatant was collected to determine the protein concentration, and then an appropriate amount of 5× protein loading buffer was added. The mixture was heated at 95° C. for 10 minutes to prepare a protein electrophoresis sample. Finally protein blotting was performed to detect the phosphorylation level of the corresponding protein. The primary antibodies used in the protein blotting were purchased from CST: STING (D2P2F) rabbit mAb, Phospho-STING (Ser366) rabbit mAb, Phospho-IRF3 (Ser396) (D601M) rabbit mAb, IRF3 (D83B9) rabbit mAb, TBK1/NAK (D1B4) rabbit mAb, Phospho-TBK1/NAK (Ser172) (D52C2) XP® rabbit mAb, and GAPDH (D16H11) rabbit mAb; and the secondary antibody horseradish peroxidase-conjugated goat anti-rabbit IgG (H+L) was purchased from Zsgb-bio.

SMILES	EC50 ([1]; Homo sapiens) [µM]	Emax (OD620nm) [1] [OD620nm]	agonistic effect on the STING-mediated Interferon (IFN) signal pathway [1]	EC50 [1] [µM]	EC50 [2] [µM]	Emax [2] [pg/mL]	Emax [3] [pg/mL]	EC50 [3] [µM]	Ki (hSTING protein; calculated as Ki=1/2*IC50 per kit instructions) [µM]	IC50 (hSTING protein; competition with d2-STING-ligand for 6×His-hSTING, HTRF, 3 h at 25° C.) [µM]	agonistic effect on the phosphorylation levels of STING, TBK1 and IRF3 [4]
CCOC(=O)CCC(=O)c1cc2cc(OCCCOc3cc4cc(C(=O)N(C)CCCOC)sc4cc3OC)c(OC)cc2s1 [Compound 23, ethyl 4-(6-methoxy-5-(3-((6-methoxy-2-((3-methoxypropyl)(methyl)carbamoyl)benzo[b]thiophen-5-yl)oxy)propoxy)benzo[b]thiophen-2-yl)-4-oxobutyrate]	0.974	1.74	strong agonistic effects	–	–	–	–	–	–	–	–
CCOC(=O)CCC(=O)c1cc2cc(OCCCOc3cc4sc(C(=O)N(C)CCC(=O)OCC)cc4cc3OC)c(OC)cc2s1 [Compound 5, ethyl 4-(5-(3-((2-((3-ethoxy-3-oxopropyl)(methyl)carbamoyl)-5-methoxybenzo[b]thiophen-6-yl)oxy)propoxy)-6-methoxybenzo[b]thiophen-2-yl)-4-oxobutyrate]	0.0014	1.94	strong agonistic effects	–	–	–	–	–	–	–	–
Nc1ncnc2c1ncn2[C@@H]1O[C@@H]2COP(=O)([S-])O[C@@H]3[C@H](O)[C@@H](COP([O-])(=S)O[C@H]2[C@H]1O)O[C@H]3n1cnc2c(N)ncnc21.[Na+].[Na+] (stereo partly shown) [Control Compound 1, ADU-S100, reference compound]	–	2.03	–	3.88	14	1476.6	1248.94	2.74	–	–	–
COc1cc2cc(C(=O)CCC(=O)O)sc2cc1OC [Control Compound 2, reference compound]	4.95	1.49	–	–	16.8	1373.9	1106.15	24.6	1.89	3.78	–
CCOC(=O)CCC(=O)c1cc2cc(OC)c(OCCCOc3cc4sc(C(=O)N(C)CCC(=O)OCC)cc4cc3OC)cc2s1 [Compound 1, ethyl 4-(6-(3-((2-((3-ethoxy-3-oxopropyl)(methyl)carbamoyl)-5-methoxybenzo[b]thiophen-6-yl)oxy)propoxy)-5-methoxybenzo[b]thiophen-2-yl)-4-oxobutyrate]	0.00057	1.54	strong agonistic effects	–	–	–	–	–	–	–	strong agonistic effects
CCOC(=O)CCC(=O)c1cc2cc(OC)c(OCCCOc3cc4cc(C(=O)N(C)CCC(=O)OCC)sc4cc3OC)cc2s1 [Compound 3]	–	1.92	strong agonistic effects	0.00358	–	–	–	–	–	–	strong agonistic effects
